Measured values published in patent US7847152B2, “Use of tryptophan indole and anthranilate analogs as plant transformation selection agents” (The Board of Trustees of the University of Illinois, priority 2006, dated 2010).

What was measured:
Type in all cases: biochemical, Nicotiana tabacum
[1] = tested on: AS holoenzyme of ASA2 transgenic tobacco lines; assay: AS holoenzyme activity, inhibition by Trp, ASA2 transgenic lines (10 mM Gln); details: 300 μM Trp, pC2ASA2 lines
Procedure: (§1) Approximately 2 g of leaves was homogenized with 1.5 volume of ice-cold extraction buffer as described in Bernasconi et al., (1994). The homogenate was centrifuged at 30,000 g at 4° C. for 10 min. The supernatant was desalted using a Econo-Pac 10 DG column (Bio-Rad, Hercules, Calif.). Protein concentration was determined using a protein dye-binding assay kit (Bio-Rad, Hercules, Calif.). The supernatant was combined with two volumes of assay buffer as described previously (Bernasconi et al., 1994) but without NH4Cl. AS enzyme activity was measured as the conversion rate of chorismate to anthranilate as described previously (Song et al., 1998). Either 100 mM NH4Cl or 10 mM glutamine was added to the assay mixture to determine α-subunit activity or AS holoenzyme activity respectively and Trp at different concentrations. Duplicate extracts of each line were analyzed.

[2] = tested on: AS α subunit (feedback insensitive ASA2) of transgenic tobacco lines; assay: AS α subunit activity, inhibition by Trp, ASA2 transgenic lines (100 mM NH4Cl); details: 300 μM Trp, pC2ASA2 lines
Procedure: as §1

[3] = tested on: anthranilate synthase (AS) holoenzyme of WT tobacco; assay: AS holoenzyme activity, inhibition by Trp, wild type (10 mM Gln as amino donor)
Procedure: as §1

[4] = tested on: AS α subunit of WT tobacco; assay: AS α subunit activity, inhibition by Trp, wild type (100 mM NH4Cl as amino donor); details: 10 μm Trp, Example 6
Procedure: as §1

N[C@@H](Cc1c[nH]c2ccccc12)C(=O)O [Trp, tryptophan]
holoenzyme activity retained by line #6 and line #7 [1]: about 40%
α-subunit activity retained by line #6 and line #7 [2]: about 40%
WT relative holoenzyme activity ([3]; 300 μM Trp, Example 9): almost completely inhibited
WT AS holoenzyme activity ([3]; 10 μm Trp, Example 6): almost completely inhibited
WT AS α subunit activity [4]: almost completely inhibited
